Data on 11 compounds can be found in patent publication US20240238425A1, “HSD17B13 Inhibitors and/or Degraders” (Pfizer Inc., priority 2022, published 2024).

Counter-ions that a name gives are not always drawn.

This assay has as its system HiBiT-HSD17β13 fusion protein (N-terminal HiBiT-tagged HSD17β13 isoform D) in Huh7 HiBiT-HSD17β13 OE cells. Briefly: Whole-cell Huh7-HSD17B13 HiBiT assay (degrader potency and maximal efficacy, luminescence readout). Conditions: 24 hour incubation, geometric mean, * = geometric mean for all forms tested (parent and salt forms); for DC50: read-out: Huh7_HIBIT-HSD17β13_DC50 GMean DC50; for Huh7_HIBIT-HSD17β13_DC50 GMean Asymptote Maximum: max. concentration 1 μM. Format: cell-based, human. The procedure: Degrader potency and maximal efficacy of test compounds were determined using a whole-cell Huh7-HSD17B13 HiBiT assay, utilizing a luminescence readout. A HiBiT tag was fused to the N-terminus of HSD17β13, and therefore the HiBiT luminescence signal produced in the assay was proportional to the level of HiBiT-HSD17β13 fusion protein in a sample.
A Huh7 HiBiT-HSD17β13 OE cell line was generated using electroporation with an N-terminal HiBiT-tagged HSD17β13 isoform D overexpression plasmid, followed by geneticin selection to produce a stable pool. Clones were created with varying HiBiT signals to optimize HiBiT HSD17 β13 ratios. A clone with similar HSD17β13 expression levels as human primary hepatocytes was selected for the compound screen.
Greiner 384-well white opaque, flat bottom, tissue culture treated plates (Greiner #781080) were used for both HiBiT and CTG assays. The treated plates were spotted with 25 nL of a compound which had been serial diluted 1 in 3.162 in 100% DMSO for an 11-point concentration response curve, with duplicate points at each concentration. The maximum concentration of the compounds was 1 mM, which was later diluted with cell suspension for a maximum concentration of 1 μM). High percentage effect (HPE) wells and zero percentage effect (ZPE) wells located in columns 1 and 24 were spotted with 25 nL of DMSO (Sigma #D2650) using an ECHO Acoustic Liquid Handler (Labcyte Echo 550 Series). Each plate was performed in duplicate.
The Huh7 HiBiT-HSD17β13 OE cells were plated on top of a compound or a DMSO control at 3,000 viable cells/well in 25 μL growth media (DMEM (Gibco #10569), 10% FBS HI (Gibco #16140), 1× Pen/Strep (Gibco #15070), 1×MEM Non-Essential Amino Acids (Gibco #11140), and 300 μg/mL Geneticin (Gibco #10131) in columns 2-24 of the plates. Huh7 parental cells were plated using the same parameters in column 1 (HPE) in the same culture medium, excluding Geneticin selection. Cells were incubated overnight with the compounds for 24 hours (with lid) at 37° C. ([…]).
Each assay was conducted after a 24 hour incubation period. In the HiBiT assay plates, 25 μL of complete Nano-Glo HiBiT Lytic detection system (Promega #PRN3040), consisting of HiBiT Lytic Buffer with the addition of 1:100 LgBiT Protein and 1:50 Substrate, was added to each well. In CTG counter screen plates, 25 μL of Cell Titer-Glo Luminescent Reagent (Promega #G7573) was added to each well. Both plates were centrifuged for 2 minutes at 1000 rpm and incubated at room temperature, in the dark, for 10 minutes. Then Luminescence was read using an EnVision Plate Reader (Perkin Elmer PE2103).
The raw data from the Envision Plate Reader was expressed as relative luminescence units (RLUs) for each well of the assay plates. Using HPE and ZPE controls, the % effect was calculated for each sample well as follows: Percent effect=[(sample RLU−HPE RLU)\(ZPE RLU−HPE RLU)]*100. The percent effect was plotted versus the compound concentration and a 50% degradation ([…]) was determined using a four-parameter logistic dose response equation. The raw data was analyzed using ABase (IDBS).
In general terms: HiBiT is a short tag that completes a luciferase, so light tracks the accessible tagged protein.

As a reminder, the DC50 is the concentration giving 50% degradation. As for `Cn1c(=O)n(C2CCC(=O)NC2=O)c2ccc(CCCN3CCN(c4ccc(-c5noc(C67CCC(CNC(=O)c8cc(F)c(O)c(F)c8F)(CC6)CC7)n5)nn4)CC3)cc21.O=C(O)C(F)(F)F` (racemic) [Example 15, N-{[4-(3-{6-[4-(3-{1-[(3RS)-2,6-Dioxopiperidin-3-yl]-3-methyl-2-oxo-2,3-dihydro-1H-benzimidazol-5-yl}propyl)piperazin-1-yl]pyridazin-3-yl}-1,2,4-oxadiazol-5-yl)bicyclo[2.2.2]octan-1-yl]methyl}-2,3,5-trifluoro-4-hydroxybenzamide, trifluoroacetate salt], the DC50 worked out at 310 pM and the “Huh7_HIBIT-HSD17β13_DC50 GMean Asymptote Maximum” value is given as 85%.

Consider `Cn1c(=O)n(C2CCC(=O)NC2=O)c2ccc(CCCN3CCN(c4ccc5nn(C6CCC(CNC(=O)c7cc(F)c(O)c(F)c7F)CC6)cc5n4)CC3)cc21.O=CO` (racemic) [Example 16, N-{[(1r,4r)-4-{5-[4-(3-{1-[(3RS)-2,6-Dioxopiperidin-3-yl]-3-methyl-2-oxo-2,3-dihydro-1H-benzimidazol-5-yl}propyl)piperazin-1-yl]-2H-pyrazolo[4,3-b]pyridin-2-yl}cyclohexyl]methyl}-2,3,5-trifluoro-4-hydroxybenzamide, formate salt], for which the DC50 was 420 pM and the “Huh7_HIBIT-HSD17β13_DC50 GMean Asymptote Maximum” value turned out to be 82%.

Consider `Cn1c(=O)n(C2CCC(=O)NC2=O)c2ccc(CCCN3CCN(c4nccc(-c5nc(C6CCC(CNC(=O)c7cc(F)c(O)c(F)c7F)CC6)no5)n4)CC3)cc21.O=C(O)C(F)(F)F` (racemic) [Example 17, N-{[(1r,4r)-4-(5-{2-[4-(3-{1-[(3RS)-2,6-Dioxopiperidin-3-yl]-3-methyl-2-oxo-2,3-dihydro-1H-benzimidazol-5-yl}propyl)piperazin-1-yl]pyrimidin-4-yl}-1,2,4-oxadiazol-3-yl)cyclohexyl]methyl}-2,3,5-trifluoro-4-hydroxybenzamide, trifluoroacetate salt], for which the 50% degradation concentration (DC50) came out at 470 pM and the “Huh7_HIBIT-HSD17β13_DC50 GMean Asymptote Maximum” value is on record as 85%.

Turning to `Cn1c(=O)n(C2CCC(=O)NC2=O)c2ccc(CCCN3CCN(c4nccc(-c5ncc(C67CCC(CNC(=O)c8cc(F)c(O)c(F)c8F)(CC6)CC7)o5)n4)CC3)cc21` (racemic) [Example 18, N-{[4-(2-{2-[4-(3-{1-[(3RS)-2,6-Dioxopiperidin-3-yl]-3-methyl-2-oxo-2,3-dihydro-1H-benzimidazol-5-yl}propyl)piperazin-1-yl]pyrimidin-4-yl}-1,3-oxazol-5-yl)bicyclo[2.2.2]octan-1-yl]methyl}-2,3,5-trifluoro-4-hydroxybenzamide], the DC50 was 580 pM and the “Huh7_HIBIT-HSD17β13_DC50 GMean Asymptote Maximum” value is given as 82%.

Turning to `Cn1c(=O)n(C2CCC(=O)NC2=O)c2ccc(CCCN3CCc4nc(-c5ccc6cn([C@H]7CC[C@H](CNC(=O)c8cc(F)c(O)c(F)c8F)CC7)nc6c5)ccc4C3)cc21` (mixture of isomers) [Example 21, N-{[(1r,4r)-4-{6-[6-(3-{1-[(3RS)-2,6-Dioxopiperidin-3-yl]-3-methyl-2-oxo-2,3-dihydro-1H-benzimidazol-5-yl}propyl)-5,6,7,8-tetrahydro-1,6-naphthyridin-2-yl]-2H-indazol-2-yl}cyclohexyl]methyl}-2,3,5-trifluoro-4-hydroxybenzamide], the 50% degradation concentration (DC50) is 380 pM and the “Huh7_HIBIT-HSD17β13_DC50 GMean Asymptote Maximum” value amounted to 74%.

For `Cn1c(=O)n(C2CCC(=O)NC2=O)c2ccc(CCCN3C[C@H]4CCN(c5ccc6cn(C7CCC(CNC(=O)c8cc(F)c(O)c(F)c8F)CC7)nc6c5)C[C@H]4C3)cc21.O=CO` (mixture of isomers) [Example 22, N-{[(1r,4r)-4-{6-[(3aR,7aS)-2-(3-{1-[(3RS)-2,6-Dioxopiperidin-3-yl]-3-methyl-2-oxo-2,3-dihydro-1H-benzimidazol-5-yl}propyl)octahydro-5H-pyrrolo[3,4-c]pyridin-5-yl]-2H-indazol-2-yl}cyclohexyl]methyl}-2,3,5-trifluoro-4-hydroxybenzamide, formate salt], the DC50 was 1600 pM and the “Huh7_HIBIT-HSD17β13_DC50 GMean Asymptote Maximum” value stood at 77%.

On to `Cl.Cn1c(=O)n(C2CCC(=O)NC2=O)c2ccc(CCCN3CCN(c4ncc(-c5ccc6cn([C@H]7CC[C@H](CNC(=O)c8cc(F)c(O)c(F)c8F)CC7)nc6c5)cn4)CC3)cc21` (mixture of isomers) [Example 24, N-{[(1r,4r)-4-(6-{2-[4-(3-{1-[(3RS)-2,6-dioxopiperidin-3-yl]-3-methyl-2-oxo-2,3-dihydro-1H-benzimidazol-5-yl}propyl)piperazin-1-yl]pyrimidin-5-yl}-2H-indazol-2-yl)cyclohexyl]methyl}-2,3,5-trifluoro-4-hydroxybenzamide, hydrochloride salt], for which the DC50 came to 180 pM and the “Huh7_HIBIT-HSD17β13_DC50 GMean Asymptote Maximum” value was 88* %.

For `Cl.Cn1c(=O)n(C2CCC(=O)NC2=O)c2cccc(CN3CCN(c4ncc(-c5ccc6cn([C@H]7CC[C@H](CNC(=O)c8cc(F)c(O)c(F)c8F)CC7)nc6c5)cn4)CC3)c21` (mixture of isomers) [Example 25, N-{[(1r,4r)-4-(6-{2-[4-({1-[(3RS)-2,6-dioxopiperidin-3-yl]-3-methyl-2-oxo-2,3-dihydro-1H-benzimidazol-4-yl}methyl)piperazin-1-yl]pyrimidin-5-yl}-2H-indazol-2-yl)cyclohexyl]methyl}-2,3,5-trifluoro-4-hydroxybenzamide, hydrochloride salt], the half-maximal degradation concentration (DC50) worked out at 850 pM and the “Huh7_HIBIT-HSD17β13_DC50 GMean Asymptote Maximum” value turned out to be 84%.

As for `Cl.Cn1c(=O)n(C2CCC(=O)NC2=O)c2ccc(CN3CCN(c4ncc(-c5ccc6cn([C@H]7CC[C@H](CNC(=O)c8cc(F)c(O)c(F)c8F)CC7)nc6c5)cn4)CC3)cc21` (mixture of isomers) [Example 26, N-{[(1r,4r)-4-(6-{2-[4-({1-[(3RS)-2,6-dioxopiperidin-3-yl]-3-methyl-2-oxo-2,3-dihydro-1H-benzimidazol-5-yl}methyl)piperazin-1-yl]pyrimidin-5-yl}-2H-indazol-2-yl)cyclohexyl]methyl}-2,3,5-trifluoro-4-hydroxybenzamide, hydrochloride salt], the DC50 is 500 pM and the “Huh7_HIBIT-HSD17β13_DC50 GMean Asymptote Maximum” value is reported as 82%.

For `Cl.Cn1c(=O)n(C2CCC(=O)NC2=O)c2ccc(CCCN3CCN(c4ccc5cn([C@H]6CC[C@H](CNC(=O)c7cc(F)c(O)c(F)c7F)CC6)nc5c4)CC3)cc21` (mixture of isomers) [Example 27, N-{[(1r,4r)-4-{6-[4-(3-{1-[(3RS)-2,6-dioxopiperidin-3-yl]-3-methyl-2-oxo-2,3-dihydro-1H-benzimidazol-5-yl}propyl)piperazin-1-yl]-2H-indazol-2-yl}cyclohexyl]methyl}-2,3,5-trifluoro-4-hydroxybenzamide, hydrochloride salt], the DC50 was determined as 820 pM and the “Huh7_HIBIT-HSD17β13_DC50 GMean Asymptote Maximum” value was determined as 86%.

In the case of `Cn1c(=O)n(C2CCC(=O)NC2=O)c2ccc(CCCN3CCn4c(-c5ccc6cn([C@H]7CC[C@H](CNC(=O)c8cc(F)c(O)c(F)c8F)CC7)nc6c5)cnc4C3)cc21` (mixture of isomers) [Example 31, N-{[(1r,4r)-4-{6-[7-(3-{1-[(3RS)-2,6-dioxopiperidin-3-yl]-3-methyl-2-oxo-2,3-dihydro-1H-benzimidazol-5-yl}propyl)-5,6,7,8-tetrahydroimidazo[1,2-a]pyrazin-3-yl]-2H-indazol-2-yl}cyclohexyl]methyl}-2,3,5-trifluoro-4-hydroxybenzamide, trifluoroacetate salt], the DC50 was 990 pM and the “Huh7_HIBIT-HSD17β13_DC50 GMean Asymptote Maximum” value is listed as 85%.
